Values joined by “and” are separate entries in the source; they are usually repeats but may differ in a detail not shown here. Equal entries are not always repeated. “Also recorded” adds a separate entry of the source.
Experiments:
[1] = system: pools of well-characterized cancer cell lines; test: MIX-Seq: scRNA-seq transcriptional response profiling of drug-treated cell line pools; assay type: cell-based, human; conditions: for shared viability-related signature (cell-cycle genes): across compounds, 24 hours post-treatment
Method: Cell line pools were made in sets of 25 cell lines. These 25 cell line pools were chosen based on doubling time and were grown in RPMI in the absence of phenol red and with 10% FBS. Cell lines were then washed with 10 mLs of PBS, and trypsinized with 1 mL trypsin which was then removed. Ten mLs of RPMI media were added to the cells post trypsinization and resuspended. Cells were then counted by a Nexcelom cellometer using 10 uL of cell suspension and 10 ul of Trypan blue. Equal numbers of cells per cell line were mixed together and spun down at 1,250 RPM for 5 minutes. Media was aspirated and the cells were resuspended in Sigma Cell Freezing media and frozen in 1 mL aliquots. This process was repeated for all of the 25 cell line pools. For MIX-Seq experiments involving larger pools, multiple 25 cell line pools were thawed in RPMI with 10% FBS, spun down and resuspended in 5 mLs of RPMI media. Cells were then counted and equal numbers were combined together on the day of plating to form larger pools of up to ˜100 cell lines.
For drug treatment experiments, cell line pools were cultured in RPMI containing 10% fetal bovine serum, in the absence of phenol red and penicillin/streptomycin. Cell line pools were validated as Mycoplasma free prior to initiating the experiment. Cell line pools were plated at 200,000 cells per well in 6 well plates containing 2 mL of RPMI culture media described above. […] Cell pools were plated ˜16-20 hours prior to drug treatment. Cells were treated with the described drugs or vehicle (DMSO) with a 0.2% final media DMSO concentration.
Generally cells were harvested after drug treatment using standard cell culture methods. Briefly, after drug treatment cells that were in suspension (presumably containing dead cells from drug treatment) were collected and reserved for addition to the adherent cell fraction. Adherent cells were washed once with 1×PBS, trypsinized in 1 mL trypsin, incubated for 3-7 minutes at 37 C, and then trypsin inactivated with 1 mL growth media. For Cell Hashing, cells were treated with TrypLE Express (ThermoFisher) instead of trypsin to reduce the amount of cell surface proteins digested that may affect the binding of Cell Hashing antibodies.
After trypsinization, adherent and suspension cells were combined for each treatment, pelleted, and resuspended in Cell Capture Buffer (lx PBS with 0.04% BSA). Cells were counted (including trypan blue non-viable cells) and resuspended at a concentration of 1,000 cells per microliter for standard loading on the Chromium Controller (10× Genomics), or at 1,500 cells per microliter for “super loaded” samples. Up to 40,000 cells were loaded per 10× channel for “super loaded” samples, with expected recovery of up to 20,000 cells per channel. Cell suspensions were captured on a 10× Chromium controller using Single Cell 3′ reagent chemistries (either version 2 or and version 3 reagents) FIG. 26.
Sequencing data were processed using 10× Cell Ranger software, run using the Cumulus cloud-based analysis framework (Li et al. 2019). Initial experiments were done with 10× Single Cell 3′ v2 chemistry, and were processed using version 2 of the Cell Ranger software. In later experiments v3 chemistry and the corresponding version 3 of Cell Ranger were used. Reads were aligned to the hg19 reference genome.
To estimate the average transcriptional response of each cell line to a perturbation, the data were first ‘sum-collapsed’—summing read counts across cells for each cell line and treatment condition—to produce a bulk RNA-seq style read counts profile for each sample (Crowell et al. 2019; Lun & Marioni 2017). […]

[2] = system: pools of cancer cell lines; test: Single-cell heterogeneity analysis of drug responses (clustering of scRNA-seq profiles); assay type: cell-based, human; conditions: of the 24 cell lines in the pool, 24 hours after treatment
Excerpt: Specifically, the edgeR quasi-likelihood approach was used (Lun et al. 2016), following the pipeline in Soneson et al. 2018, with the cell detection rate (the fraction of genes with non-zero reads detected) included as a covariate.
To identify subpopulations of bortezomib treated cells (FIGS. 4D-4F), Seurat's default methods were used to normalize the data, detect variable genes, and compute PCs (using 5000 most variable genes, and 50 PCs). Seurat's default clustering methods were then used to cluster cells for each cell line (using the 20 nearest neighbors, and a clustering resolution parameter of 0.25).
To identify sub-populations of cells from a given cell line in a consistent fashion across baseline and treatment conditions (for analysis and presentation in FIG. 19), the following procedure was employed. After restricting to cells from the target cell line, the scTransform method (Hafemeiester et al. 2019) was used to normalize the data, identify 5,000 variable genes, and regress out experimental condition as a covariate to align clusters across conditions. Seurat's default clustering methods (using the top 10 PCs, 20 nearest neighbors, and a clustering resolution parameter of 0.25) were then used to identify clusters jointly across treated and control cells.

[3] = system: pools of cancer cell lines; test: Cell cycle phase analysis inferred from single-cell transcriptional profiles (MIX-Seq); assay type: cell-based, human; conditions: for change in proportion of cells in G2/M phase / change in proportion of cells in S phase: 24 hours post-treatment, average weighted by drug sensitivity
Method: Cell cycle phase classification was performed using the Seurat function CellCycleScoring, using the S- and G2M-phase gene lists reported in Tirosh et al. 2016. The change in proportion of cells in each phase between treatment and control conditions for each cell line, along with associated confidence intervals, were estimated using the prop.test R function. For FIG. 4C, aggregate scores were computed representing how each compound altered the cell cycle composition by computing weighted averages across cell lines of the change in proportion of cells in each phase, where the weights were determined by the cell lines' measured drug sensitivity (1 minus AUC, bounded between 0 and 1).
For example, characterizing the cell cycle effects of a perturbation yields important information about its MoA. Such measurements have heretofore typically been made using a FACS-based assay, which must be performed on each sample independently and cannot be used to relate cell cycle effects post hoc to other phenotypes without advanced planning. Using MIX-Seq, such measurements can be made in parallel across a pool of cell lines, inferring the cell cycle phase of each cell from its transcriptional profile (Tirosh et al. 2016).
Next, the effects of each compound on the cell cycle were systematically assessed (see Example 1 above). […] Two notable exceptions were the DNA-damaging agent gemcitabine and the CHEK1/2 inhibitor prexasertib.

cancer cell lines = conditions: GDSC and PRISM drug sensitivity data; cited from earlier work
[4] = 24 hours post-treatment (FIGS. 9B, 9C)

Cc1sc2c(c1C)C(c1ccc(Cl)cc1)=N[C@@H](CC(=O)OC(C)(C)C)c1nnc(C)n1-2 [JQ-1]
shared viability-related signature (cell-cycle genes) [1]: shared signature was also apparent

CC(C)C[C@H](NC(=O)[C@H](Cc1ccccc1)NC(=O)c1cnccn1)B(O)O [bortezomib]
gene sets enriched in across-cell-line average transcriptional response ([1]; 6 hours post-treatment (FIG. 9A)): strong up-regulation of protein folding and heat-shock response pathways
shared viability-related signature (cell-cycle genes) [1]: shared signature was also apparent
number of cell lines showing a bimodal response [2]: 10 and 9

CC(C)(C)c1nc(-c2cccc(NS(=O)(=O)c3c(F)cccc3F)c2F)c(-c2ccnc(N)n2)s1 [dabrafenib]
variability of transcriptional responses among sensitive cell lines ([1]; BRAF-mutant melanoma cell lines, 24 hour post-treatment): substantial variation

CO[C@H]1C[C@@H]2CC[C@@H](C)[C@@](O)(O2)C(=O)C(=O)N2CCCC[C@H]2C(=O)O[C@H]([C@H](C)C[C@@H]2CC[C@@H](OCCO)[C@H](OC)C2)CC(=O)[C@H](C)/C=C(\C)[C@@H](O)[C@@H](OC)C(=O)[C@H](C)C[C@H](C)/C=C/C=C/C=C/1C [everolimus]
gene sets enriched in across-cell-line average transcriptional response [1, 4]: mTOR signaling was the top down-regulated gene set

Nc1ccn([C@@H]2O[C@H](CO)[C@@H](O)C2(F)F)c(=O)n1 [gemcitabine]
gene sets enriched in across-cell-line average transcriptional response [1, 4]: altered expression of apoptosis-related genes
shared viability-related signature (cell-cycle genes) [1]: shared signature was also apparent
change in proportion of cells in G2/M phase [3]: decreased the proportion of cells in G2/M
change in proportion of cells in S phase [3]: increase in S-phase cells

CC1(C)CCC(c2ccc(Cl)cc2)=C(CN2CCN(c3ccc(C(=O)NS(=O)(=O)c4ccc(N[C@H](CCN5CCOCC5)CSc5ccccc5)c(S(=O)(=O)C(F)(F)F)c4)cc3)CC2)C1 [navitoclax]
robust transcriptional response signature ([1]; 6 and/or 24 hours post-treatment): did not produce strong and/or selective transcriptional responses; also recorded: did not produce robust transcriptional response signatures; also recorded: a robust transcriptional response to navitoclax was not observed
long-term viability response across cell lines (cancer cell lines): strong selective viability responses

COc1ccc(C2=NC(c3ccc(Cl)cc3)C(c3ccc(Cl)cc3)N2C(=O)N2CCNC(=O)C2)c(OC(C)C)c1 (centres unmarked) [nutlin]
average drug-induced changes in gene expression for each cell line ([1]; TP53 WT cell lines (7) in a pool of 24 cell lines): robust response; also recorded: strong gene expression changes
gene set enrichment analysis of average transcriptional response, down-regulated ([1]; among TP53 WT cell lines): down-regulation of cell cycle processes
gene set enrichment analysis of average transcriptional response, up-regulated ([1]; among TP53 WT cell lines): clear up-regulation of genes in the TP53 downstream pathway
average drug-induced changes in gene expression for each cell line ([1]; cell lines harboring TP53 mutations (n=17) in a pool of 24 cell lines): only minimal changes; also recorded: weak gene expression changes
change in proportion of cells in G0/G1 ([3]; pool of 24 cell lines, TP53 WT vs TP53 mutant): pronounced G0/G1-arrest phenotype selectively among the TP53 WT cell lines; also recorded: elicits G1-arrest selectively among the TP53 WT cell lines

COc1cccc(OCCCN)c1-c1cc(Nc2cnc(C#N)cn2)n[nH]1 [prexasertib]
shared viability-related signature (cell-cycle genes) [1]: shared signature was also apparent
change in proportion of cells in G2/M phase [3]: slightly increased the fraction of G2/M cells
change in proportion of cells in S phase [3]: decreased the proportion of S-phase cells
